As a reminder, the IC50 is the concentration that inhibits the measured activity by half.

Holding throughout (format): cell-based
Assay [1] concerns Kyn levels in HeLa cells. Put plainly: Manual Kyn assay in HeLa cells (p-DMAB detection). Particulars: IFN-γ, L-Trp, compounds 48 h, p-DMAB, mean n=3 ±SD, read-out: Kyn Assay IC50. The procedure: Mammalian cell lines were maintained at 37°C and 5% CO2 in a humidified atmosphere and sub-cultivated twice a week. All cell lines were tested regularly for mycoplasma contamination and were always free of mycoplasma. BxPC-3 cells (DSMZ#760) were grown in RPMI-1640 medium supplemented with 10% FBS, 2 mM L-glutamine, 1 mM sodium pyruvate, 4.5 g/L glucose, 10 mM HEPES and 1.5 g/L NaHCO3. HeLa cells (DSMZ#57) were cultivated in DMEM supplemented with 10% FBS, 4.5 g/L glucose, 4 mM L-glutamine 1 mM sodium pyruvate, 1% non-essential amino acids, 3.7 g/L NaHCO3. SKOV-3 cells (ATCC#HTB-77) were maintained in modified McCoy’s 5A medium supplemented with 10% FBS, 1.5 mM L-glutamine and 2.2 g/L NaHCO3. […]
For manual testing, BxPC-3, HeLa or SKOV-3 cells (20,000 cells/well, 5,000 cells/well or 6,250 cells/well, respectively) were seeded in 96-well plates (BxPC-3 and HeLa) or 384-well plates (SKOV-3) in medium without phenol red. After 24 h, the IDO1 pathway was induced by addition of 50 ng/mL (BxPC-3 and HeLa) or 17.6 ng/mL IFN-γ (SKOV-3) and 380 µM (BxPC-3), 164.15 µM (HeLa) or 450 µM L-Trp (SKOV-3) with simultaneous treatment with the compounds at the indicated concentrations followed by incubation for 48 h. For the hemin competition assay, hemin was added together with IFN-γ, L-Trp and the compounds. Subsequently, trichloroacetic acid was added to a final concentration of 7% (v/v), the plates were incubated for 15 min at room […]
temperature and centrifuged for 10 min at 1800 x g. Afterwards, an equal volume of freshly prepared 2% (w/v) p-DMAB in glacial acetic acid (Ehrlich reagent) was added prior to measuring the absorbance at 492 nm and 650 nm on the Spark® Multimode Microplate Reader (Tecan, AT).
To determine the Kyn levels, the absorbance of the Kyn-p-DMAB adduct A492 was subtracted by the background absorbance A650 and normalized to the DMSO control. Data analysis was performed using a non-linear regression curve fit and GraphPad Prism 9.0 (GraphPad Software, Inc, US) to generate dose-response curves and obtain IC50 values. […]
Subsequently, 10 mM ascorbic acid, 10 μM methylene blue, 2 mM L-Trp and 100 μg/mL catalase were added and samples were incubated for 60 min at room temperature or 37°C. […]

In assay [2] the test system is Kyn levels in BxPC-3 cells. The experiment in a line: Automated (high-throughput) Kyn assay in BxPC-3 cells (Kyn sensor). Particulars: Homo sapiens, BXPC-3; footnote e: value from automated Kyn Assay. The procedure: Mammalian cell lines were maintained at 37°C and 5% CO2 in a humidified atmosphere and sub-cultivated twice a week. All cell lines were tested regularly for mycoplasma contamination and were always free of mycoplasma. BxPC-3 cells (DSMZ#760) were grown in RPMI-1640 medium supplemented with 10% FBS, 2 mM L-glutamine, 1 mM sodium pyruvate, 4.5 g/L glucose, 10 mM […]
HEPES and 1.5 g/L NaHCO3. […]
High-throughput Kyn assay
Automated screening for modulators of Kyn levels in BxPC-3 cells was performed as published earlier.[2] Briefly, BxPC-3 cells (1,000 cells/well) were seeded in black 1536-well plates prior to incubation for 24 h and subsequent treatment with compounds, 380 µM L-Trp and 50 ng/mL IFN-γ for 48 h. Afterwards, trichloroacetic acid was added to a final concentration of 7% (v/v), the plates were incubated for 10 min at 37°C and centrifuged for 10 min at 1620 x g. Kyn was detected by addition of 17.5 µM Kyn sensor[14] in assay buffer (excitation: 535 nm, emission: […]

The subject of assay [3] is L-Trp uptake in BxPC-3 cells. Put plainly: Trp uptake assay in BxPC-3 cells (HPLC-MS/MS). Particulars: BxPC-3 starved for L-Trp 72 h, ±IFN-γ; 5 mM L-Leu, 1 mM 1-MT, 5 µM compound. Here is the method: GraphPad Prism 9.0 (GraphPad Software, Inc, US) to generate dose-response curves and obtain […]
IDO1 promoter reporter gene assay
HEK293T cells (25,000 cells/well) were reverse-transfected with pXPG-IDO1[16] (4 µg/96-well plate, kindly provided by Gina M. Doody, Leeds, UK) and pRL-TK (300 ng/96-well plate, Promega, US) using Lipofectamine™ 2000 (Invitrogen, USA) pri or to incubation for 24 h. Afterwards, cells were treated with 50 ng/mL IFN-γ and the compounds for 48 h. Luminescence generated by the Fluc reporter and the control reporter Rluc was measured using the Dual-Glo ® Luciferase Assay System (Promega, US) on the Spark® Multimode Microplate Reader (Tecan, AT). To determine the IDO1 promoter activity, Fluc signals were divided by Rluc signals and normalized to the values of the DMSO control. Data analysis was performed using a non-linear regression curve fit and […]
BxPC-3 cells (30,000 cells/well) were seeded in 96-well plates in Trp-free RPMI 1640 medium and incubated for 48 h prior addition of 50 ng/mL IFN-γ. Trp starvation was continued for another 24 h. Afterwards, medium was exchanged for Trp-free medium containing the control inhibitors 5 mM L-Leu (inhibitor of system-L amino acid transporters (LAT)), 1 mM 1-methyl-L-tryptophan (inhibitor of tryptophanyl-tRNA synthetase (TrpRS)) and compounds and cells were incubated for 30 min. Subsequently, 50 µM L-Trp was added and samples were incubated for another 30 min.
The supernatant was transferred to a new plate, trichloroacetic acid was added to a final concentration of 7% (v/v) and plates were incubated for 15 min at room temperature. Samples were centrifuged for 10 min at 1800 x g and L-Trp was quantified by HPLC-MS/MS using the LTQ Velos Pro and Dionex HPLC (Thermo Fisher Scientific, US). Data analysis was performed with Xcalibur™ (Thermo Fisher Scientific, US) and repres ented using GraphPad Prism 9.0 (GraphPad […]
RNA purification and RT-qPCR
HeLa cells (250,000 cells/well) were seeded in 6-well plates and incubated for 24 h prior addition of 50 ng/mL IFN-γ and compounds. […]

Read-outs that look alike come from different tables or passages of the source.

As to `CCOC(=O)C1=CC[C@@](C(=O)OC)(c2cc3ccccc3n2C)N(S(=O)(=O)c2ccccc2[N+](=O)[O-])[C@H]1C(=O)OCC` [3a^a], in assay [1] (Homo sapiens, HeLa, 48 h), the IC50 was above 10 µM.

Consider `CCOC(=O)C1=CC[C@H](c2cc3ccccc3n2C)N(S(=O)(=O)c2ccc(C)cc2)[C@@H]1C(=O)OC(C)(C)C` [3e^e], for which the midpoint of inhibition in assay [2], the IC50, lay at 0.26 ± 0.05 µM.

As for `Cn1cc(C[C@H](N)C(=O)O)c2ccccc21` [Compound 1-MT, 1-methyl-L-tryptophan], the “uptake (import) of L-Trp” value in assay [3] was “inhibit the uptake”.

For `CCOC(=O)C1=CC[C@H](c2cc3ccccc3n2C)N(S(=O)(=O)c2ccccc2[N+](=O)[O-])[C@@H]1C(=O)OC(C)(C)C` [Compound 3c], the IC50 came out at 0.48 ± 0.06 µM in assay [1] (listed as 3c^b) and 1.04 ± 0.08 µM in assay [1].

For `CCOC(=O)C1=CC[C@](C(=O)OC)(c2cc3ccccc3n2C)N(S(C)(=O)=O)[C@@H]1C(=O)OC(C)(C)C` [Compound 3f], the IC50 in assay [1] (Homo sapiens, HeLa, 48 h) stood at 0.08 ± 0.01 µM; in assay [1] (listed as 3f^bc) it was 0.09 ± 0.01 µM.

`CCOC(=O)C1=CC[C@](C(=O)OC)(c2cc3ccccc3n2C)N(S(=O)(=O)c2ccccc2)[C@@H]1C(=O)OC(C)(C)C` [Compound 3g]: the IC50 in assay [1] (Homo sapiens, HeLa, 48 h) is 0.08 ± 0.01 µM.

For `CCOC(=O)C1=CC[C@](C(=O)OC)(c2cc3ccccc3n2C)N(S(=O)(=O)c2ccc(Br)cc2)[C@@H]1C(=O)OC(C)(C)C` [Compound 3h], the IC50 in assay [1] (Homo sapiens, HeLa, 48 h) was 0.43 ± 0.15 µM.

Take `CCOC(=O)C1=CC[C@](C(=O)OC)(c2cc3ccccc3n2C)N(S(=O)(=O)c2cccc(C(F)(F)F)c2)[C@@H]1C(=O)OC(C)(C)C` [Compound 3i]: the IC50 in assay [1] (Homo sapiens, HeLa, 48 h) turned out to be 1.54 ± 0.41 µM.

`CCOC(=O)[C@@H]1C(C(=O)OC(C)(C)C)=CC[C@](C(=O)OC)(c2cc3ccccc3n2C)N1S(=O)(=O)c1ccc(C)cc1` [Compound 3j]: in assay [1] (Homo sapiens, HeLa, 48 h), the IC50 worked out at 0.76 ± 0.04 µM.

Regarding `CCOC(=O)[C@@H]1C(C(=O)OC(C)(C)C)=CC[C@H](c2cc3ccccc3n2C)N1S(=O)(=O)c1ccc(C)cc1` [Compound 3k], in assay [1] (Homo sapiens, HeLa, 48 h), the IC50 was 1.63 ± 0.16 µM.

Turning to `COC(=O)[C@]1(c2cc3ccccc3n2C)CC=C(C(=O)OCc2ccccc2)[C@@H](C(=O)OC(C)(C)C)N1S(=O)(=O)c1ccccc1[N+](=O)[O-]` [Compound 3l], the IC50 in assay [1] (listed as 3l^a) is 2.88 ± 0.13 µM; in assay [1], 1.39 ± 0.09 µM.

As to `CCOC(=O)[C@@H]1C(C(=O)OC(C)(C)C)=CC[C@](C(=O)OC)(c2cc3ccccc3n2C)N1S(=O)(=O)c1ccccc1[N+](=O)[O-]` [Compound 3m], in assay [1] (Homo sapiens, HeLa, 48 h), the IC50 was determined as 2.46 ± 0.29 µM.

Take `CCOC(=O)C1=CC[C@](C(=O)OC)(c2cc3ccccc3n2C)N(S(=O)(=O)c2ccccc2[N+](=O)[O-])[C@@H]1C(=O)OCc1ccccc1` [Compound 3n]: in assay [1] (Homo sapiens, HeLa, 48 h), the IC50 is 7.52 ± 0.8 µM.

Regarding `COC(=O)[C@]1(c2cc3ccccc3n2C)CC=C(C(=O)OC(C)(C)C)[C@@H](C(=O)OC(C)(C)C)N1S(=O)(=O)c1ccccc1[N+](=O)[O-]` [Compound 3o], the values for the IC50 in assay [1] (listed as 3o^a), in assay [1] (listed as 3o^b) and in assay [1] were 0.82 ± 0.7 µM, 0.16 ± 0.05 µM and 0.65 ± 0.08 µM, respectively.

Turning to `COC(=O)[C@]1(c2cc3ccccc3n2C)CC=C(C(=O)OCc2ccccc2)[C@@H](C(=O)OC(C)(C)C)N1S(=O)(=O)c1ccc(C)cc1` [Compound 3p], the IC50 in assay [1] (Homo sapiens, HeLa, 48 h) amounted to 1.65 ± 0.23 µM.

Regarding `CCOC(=O)C1=CC[C@](C(=O)OC)(c2cc3ccccc3n2C)N(S(=O)(=O)c2ccc(F)cc2)[C@@H]1C(=O)OC(C)(C)C` [Compound 3q], the half-maximal inhibitory concentration (IC50) in assay [1] (Homo sapiens, HeLa, 48 h) was found to be 0.11 ± 0.02 µM.

Regarding `Cn1c([C@H]2CC=C(C(=O)OCc3ccccc3)[C@@H](C(=O)OC(C)(C)C)N2S(=O)(=O)c2ccccc2[N+](=O)[O-])cc2ccccc21` [Compound 3r], in assay [1] (Homo sapiens, HeLa, 48 h), the IC50 was determined as 0.89 ± 0.19 µM.

With `CC(C)C[C@H](N)C(=O)O` [L-Leu, L-leucine], the “uptake (import) of L-Trp” value in assay [3] is recorded as “inhibit the uptake”.

These data come from article PMC9804781, “Identification of a Novel Pseudo‐Natural Product Type IV IDO1 Inhibitor Chemotype” (Angewandte Chemie (International Ed. in English), 2022).
